In patent US20170029531A1, “INHIBITION OF LACTATE DEHYDROGENASE 5 (LDH-5) BINDING, INCORPORATION, INTERNALIZATION AND/OR ENDOCYTOSIS TO IMMUNE CELLS” (Seattle Children's Hospital (dba Seattle Children's …, priority 2014, published 2017):

Assays:
primary human NK cells = experiment: NKG2D expression and CD107a degranulation of primary human NK cells after incubation with LDH or lactate; type: cell-based; conditions: LDH 50 ug/mL or lactate 20 mM; 12 hour (NKG2D, NKp46) or 6 hour after IL-2 (CD107a)
Description: FIG. 2. Biochemical purification of tumor-derived Lactate Dehydrogenase, expression in glioma cell lines and verification of LDH-mediated induction of NKG2D ligands on monocytes. (Panel A) Protein purification strategy. […] of U87 glioblastoma cell line supernatant were subjected to ammonium sulfate precipitation. Active fractions were passed over a phenyl Sepharose column and active fractions were then subjected to size exclusion (Superdex 200), followed by ion exchange (MonoS) before Mass Spectroscopy (MS) analysis. (Panel B) Following separation by chromatography, fractions were dialyzed into PBS and cultured with MHD (healthy monocytes) for 18 hours. Whole cell mRNA was reverse transcribed, and induction of MICB and ULBP-1 was analyzed relative to media alone controls. […] (Panel C) mRNA isolated from PBMC of healthy donors, 293T cells (as negative controls), and U87, U251, and SF767 glioma cell lines were analyzed for expression of LDHA and LDHB by qPCR. (Panel D) A 1:10 dilution of fresh, unfrozen glioblastoma cell line supernatants was analyzed for total LDH enzymatic activity and expressed as OD 495 nm. […] Eighteen hours later, mRNA was isolated and analyzed for MICA, MICB, and ULBP-1 by qPCR. […] Eighteen hours later, mRNA was isolated and analyzed for MICA, MICB and ULBP-1 by qPCR. […] Eighteen hours later, MICB (black bars) and ULBP-1 (gray bars) were measured by qPCR. […]

U87 = U87 mitochondrial function and viability after overnight LDH5; type: cell-based
Description: FIG. 30. U87 mitochondrial function. […] U87 were treated overnight with LDH5 then with controls 100 uM FCCP (depolarizer) or 200 ng/mL staurosporine (hyperpolarizer) for 10 min. Cells were then loaded with the mitochondrial membrane potential sensitive dye Mitotracker CMXRos for 15 min then fixed in 2% PF. Fluorescence intensity was measured by flow cytometry.
FIG. 31. U87 mitochondrial function. […] U87 were treated overnight with LDH5. Cells were fixed in 2% PF and immunostained with an anti-mitochondrial antibody and phalloidin (actin) Mitochondrial and cell surface area were calculated by Nuance software.
FIG. 32. U87 mitochondrial function. […] U87 were treated overnight with LDH5 then with 200 ng/mL staurosporine for 5 or 24 hours. Cells were then trypsinized, stained with Annexin 594 and analyzed by flow cytometry.
Experimental wells were pulsed with 50 ug/mL LDH-A488 for 24 hours as indicated (control wells received no LDH) at 37° C. Cells were treated for 2 min with 0.5M acetic acid+150 mM NaCl (pH 2.5), followed by 4 subsequent washes in RPMI+10% FBS. […] (See FIGS. 31-32).

[1] = system: glioblastoma cell line U87; experiment: IL-6 gene expression in glioblastoma cell line U87; type: cell-based
Tumor cells = experiment: LDH-5 internalization by tumor cells, flow cytometry (FIGS. 16-19); type: cell-based; conditions: FIG. 16
Description: FIG. 17. Tumor cells internalize LDH-5, which can be reduced by antibody blocking. 10 ug/ml of LDH5 specific monoclonal antibody was added to cells 1 hour prior to culture with LDH5 as described above and evaluated for internalization using flow cytometry to evaluate fluorescence.
FIG. 19. LDH-5 internalization is receptor mediated and Clathrin dependent. LDH5 internalization is reduced with receptor mediated endocytosis inhibitors.
LDH5 internalization is reduced with receptor mediated endocytosis inhibitors. This supports that internalization is mediated by a specific receptor, as opposite to bulk phagocytosis.

[2] = LDH activity after freeze/thaw (colorimetric LDH activity assay); type: physicochemical; conditions: FIG. 12
Description: Supernatants and patient sera were analyzed for LDH enzymatic activity using a commercially available colorimetric assay according to the manufacturer's instructions (Sigma-Aldrich). Standard curves were generated using purified native LDH5.

[3] = U87 treated overnight with LDH5

What does the source list for “LDH5: purified native lactate dehydrogenase isoenzyme 5, alpha only tetramer; fluorescently labeled in uptake tests”?
NK cell NKG2D expression or degranulation (primary human NK cells): neither lactate nor LDH-5 alone directly impacted; Viability / staurosporine induced apoptosis (Annexin) (U87; U87 overnight LDH5, then 200 ng/mL staurosporine for 5 or 24 hours): does not reduce viability, nor rescue from staurosporine induced apoptosis; Mitochondrial membrane potential (Mitotracker CMXRos) (U87; [3]): depolarizes mitochondrial membrane; Mitochondrial surface area (U87; [3]): does not change; IL-6 gene expression [1]: induces IL-6 gene expression; Internalization of LDH-5 by tumor cells (Tumor cells): internalize; LDH-5 activity following freeze/thaw [2]: significantly reduced
